# Laboratory results taken from patent publication US8349851B2, “JAK kinase modulating compounds and methods of use thereof” (Ambit Biosciences Corp., priority 2009, dated 2013).
# Where a name gives a salt, the structure may show the parent alone.
# Key:
# [1] = system: csTF-1 cells (GM-CSFR/JAK2/STAT5 pathway); assay: csTF-1 cell-based reporter assay; set-up: species or system human; conditions: Homo sapiens; GM-CSF at 2 ng/mL, 4 hours; read-out: Cell Assay: CS0017: CS TF-1 reporter assay: IC50
# Description: csTF-1 Cell-based Reporter Assay
# csTF-1 cells are derived from the human erythroleukemia cell line that is growth dependent on GM-CSF and has an intact GM-CSFR/JAK2/STAT5 pathway. The cell line contains stably integrated beta-lactamase reporter gene under the control of the […] (irf 1) response element recognized by the activated transcription factor STATS. csTF-1 cells (Invitrogen K1219) were washed with assay media (97% OPTIMEM/0.5% dialyzed FBS/0.1 mM NEAA/1 mM Na pyr/P/S) and seeded in the same media at 5×10^5 cell/mL in T150 flask. After 16 hour incubation, cells were seeded at 2×10^5 cell/well in 50 μl volume, into Costar, clear bottom, 96-well assay plates. Serial dilutions of compounds were added to the plates with final DMSO concentration at 0.5% and GM-CSF at 2 ng/mL and the plates were then incubated at […] and 5% CO2 for 4 hours. The plates were brought to room temperature before adding Substrate Mixture according to manufacturer's protocol (Invitrogen, Catalog #K1085). The assay plates containing the substrate mixture were incubated in the dark at room temperature for 2 hours. Blue and green fluorescence was measured with excitation at 409 nm and emission at 460 nm (for blue) and excitation at 409 nm and emission at 530 nm (for green) using Spectra Max Gemini EM.
# [2] = target: T1, JAK3 (Homo sapiens, UniProt P52333); assay: Competition binding assay, JAK3; conditions: read-out: Binding Assay: JAK3 (active_KD, ENZ)
# T1 construct: made in house
# Description: (§1) Competition Binding Assay to Determine Binding Constants (Kd) of the Compounds Against JAK Kinases
# (§2) Competition binding assays used herein were developed, validated and performed as described in Fabian et al., Nature Biotechnology 2005, 23,329-336. Kinases were produced as fusions to T7 phage (See, Fabian et al. or WO04/015142) or alternatively, the kinases were expressed in HEK-293 cells and subsequently tagged with DNA for PCR detection (See, WO08/005310). For the binding assays, streptavidin-coated magnetic beads were treated with biotinylated affinity ligands for 30 min at rt to generate affinity resins. The liganded beads were blocked with excess biotin and washed with blocking buffer (SeaBlock (Pierce), 1% BSA, 0.05% Tween 20, 1 mM DTT) to remove unbound ligand and to reduce non-specific binding. […] Test compounds were prepared as 100× stocks in DMSO and rapidly diluted into the aqueous environment. DMSO was added to control assays lacking a test compound. Primary screen interactions were performed in polypropylene 384-well plates in a final volume of 34 μL, while Kd determinations were performed in polystyrene 96-well plates in a final volume of 135 μL. […] The kinase concentration in the eluates was measured by quantitative PCR. Each kinase was tested individually against each compound. Kds were determined using eleven serial threefold dilutions. A selectivity score, which is a quantitative measure of selectivity of a compound against a panel of enzymes, may be calculated for a compound by dividing the number of enzymes for which a compound meets a set criteria, (for example, a binding constant of 100 nM or less), by the total number of enzymes tested.
# [3] = target: T2, JAK2 (Homo sapiens, UniProt O60674); assay: Competition binding assay, JAK2; conditions: read-out: Binding Assay: JAK2 (active_KD)
# T2 construct: made in house
# Description: as §1, §2
# [4] = target: T3, AuroraB (Homo sapiens, UniProt Q96GD4); assay: Competition binding assay, Aurora B
# T3 construct: made in house
# Description: Methods for determining binding constant against Aurora B kinase are known to one of skill in the art. Exemplary methods are described in U.S. provisional application No. 61/294,413, and Fabian et al., Nature Biotechnology 2005, 23,329-336.
# as §2
# T3 sequence (Q96GD4 whole entry): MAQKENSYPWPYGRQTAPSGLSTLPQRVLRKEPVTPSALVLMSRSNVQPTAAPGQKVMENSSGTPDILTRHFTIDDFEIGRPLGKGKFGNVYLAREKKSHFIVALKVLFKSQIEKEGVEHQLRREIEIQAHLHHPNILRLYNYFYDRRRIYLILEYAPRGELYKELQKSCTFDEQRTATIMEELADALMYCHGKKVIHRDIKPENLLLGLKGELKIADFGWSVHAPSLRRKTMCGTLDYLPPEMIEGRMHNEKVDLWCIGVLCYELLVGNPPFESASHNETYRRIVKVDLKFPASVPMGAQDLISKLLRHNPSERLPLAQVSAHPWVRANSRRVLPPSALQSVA
# T2 sequence (O60674 849-1124 limits assumed): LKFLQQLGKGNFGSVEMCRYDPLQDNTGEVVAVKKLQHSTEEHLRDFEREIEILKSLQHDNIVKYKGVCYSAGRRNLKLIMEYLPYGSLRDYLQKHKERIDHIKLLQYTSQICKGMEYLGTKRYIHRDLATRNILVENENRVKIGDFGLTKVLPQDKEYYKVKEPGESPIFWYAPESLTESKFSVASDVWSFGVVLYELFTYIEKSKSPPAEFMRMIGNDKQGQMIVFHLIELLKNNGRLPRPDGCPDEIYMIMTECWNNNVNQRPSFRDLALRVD
# T1 sequence (P52333 822-1111 limits assumed): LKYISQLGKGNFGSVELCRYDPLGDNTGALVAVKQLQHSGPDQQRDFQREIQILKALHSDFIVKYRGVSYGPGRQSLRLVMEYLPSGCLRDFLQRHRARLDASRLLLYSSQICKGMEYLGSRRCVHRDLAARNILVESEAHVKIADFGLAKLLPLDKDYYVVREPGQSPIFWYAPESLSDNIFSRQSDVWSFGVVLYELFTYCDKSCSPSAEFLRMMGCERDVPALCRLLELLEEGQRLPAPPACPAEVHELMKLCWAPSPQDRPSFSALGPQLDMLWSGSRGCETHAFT
SMILES,IC50 [1] [nM],Kd [2] [nM],Kd [3] [nM],Kd [4] [nM]
"Fc1ccc(C(F)c2nc(Nc3cc[nH]n3)c3ccccc3n2)cc1 (racemic) [Example 7, (R,S)-2-(fluoro(4-fluorophenyl)methyl)-N-(1H-pyrazol-3-yl)quinazolin-4-amine]",100 to 500,10 to 100,≤ 1,> 200
"Cc1cc(Nc2nc(C(O)c3ccc(F)cc3)nc3cc(C(F)(F)F)ccc23)n[nH]1 (racemic) [Example 18, (R,S)-(4-fluorophenyl)(4-(5-methyl-1H-pyrazol-3-ylamino)-7-(trifluoromethyl)quinazolin-2-yl)methanol]",100 to 500,10 to 100,1 to 10,> 200
"OC(c1ccc(F)cc1)c1nc(Nc2cc[nH]n2)c2ccc(I)cc2n1 (racemic) [Example 23, (R,S)-(4-(1H-pyrazol-3-ylamino)-7-iodoquinazolin-2-yl)(4-fluorophenyl)methanol]",100 to 500,> 100,1 to 10,> 200
"COc1ccc2c(Nc3cc[nH]n3)nc(C(O)c3ccc(F)cc3)nc2c1 (racemic) [Example 29, (R,S)-(4-(1H-pyrazol-3-ylamino)-7-methoxyquinazolin-2-yl)(4-fluorophenyl)methanol]",≤ 100,10 to 100,≤ 1,> 200
"COc1ccc2c(Nc3cc(C)[nH]n3)nc(C(O)c3ccc(F)cc3)nc2c1 (racemic) [Example 31, (R,S)-(4-fluorophenyl)(7-methoxy-4-(5-methyl-1H-pyrazol-3-ylamino)quinazolin-2-yl)methanol]",≤ 100,10 to 100,≤ 1,> 200
"Cc1cc(Nc2nc(C(O)c3ccc(F)cc3)nc3cc(OCCN4CCOCC4)ccc23)n[nH]1 (racemic) [Example 38, (R,S)-(4-fluorophenyl)(4-(5-methyl-1H-pyrazol-3-ylamino)-7-(2-morpholinoethoxy)quinazolin-2-yl)methanol]",100 to 500,≤ 10,≤ 1,> 200
"Cc1cc(Nc2nc(C(O)c3ccc(F)cc3)nc3cc(OCCO)ccc23)n[nH]1 (racemic) [Example 39, (R,S)-2-(2-((4-fluorophenyl)(hydroxy)methyl)-4-(5-methyl-1H-pyrazol-3-ylamino)quinazolin-7-yloxy)ethanol]",≤ 100,≤ 10,≤ 1,> 200
"Cc1cc(Nc2nc(C(O)c3ccc(F)cc3)nc3cc(OCCCO)ccc23)n[nH]1 (racemic) [Example 40, (R,S)-3-(2-((4-fluorophenyl)(hydroxy)methyl)-4-(5-methyl-1H-pyrazol-3-ylamino)quinazolin-7-yloxy)propan-1-ol]",≤ 100,≤ 10,≤ 1,> 200
"COCCOc1ccc2c(Nc3cc(C)[nH]n3)nc(C(O)c3ccc(F)cc3)nc2c1 (racemic) [Example 42, (R,S)-(4-fluorophenyl)(7-(2-methoxyethoxy)-4-(5-methyl-1H-pyrazol-3-ylamino)quinazolin-2-yl)methanol]",≤ 100,≤ 10,≤ 1,> 200
"Cc1cc(Nc2nc(C(O)c3ccc(F)cc3)nc3cc(OCC(=O)OC(C)(C)C)ccc23)n[nH]1 (racemic) [Example 43, (R,S)-tert-butyl 2-(2-((4-fluorophenyl)(hydroxy)methyl)-4-(5-methyl-1H-pyrazol-3-ylamino)quinazolin-7-yloxy)acetate]",100 to 500,10 to 100,≤ 1,> 200
"Cc1cc(Nc2nc(C(O)c3ccc(F)cc3)nc3cc(OCC(=O)O)ccc23)n[nH]1 (racemic) [Example 44, (R,S)-2-(2-((4-fluorophenyl)(hydroxy)methyl)-4-(5-methyl-1H-pyrazol-3-ylamino)quinazolin-7-yloxy)acetic acid]",> 500,≤ 10,≤ 1,> 200
"Cc1cc(Nc2nc(C(CS(C)(=O)=O)c3ccc(F)cc3)nc3ccccc23)n[nH]1 (centres unmarked) [Example 70, 2-(1-(4-fluorophenyl)-2-(methylsulfonyl)ethyl)-N-(5-methyl-1H-pyrazol-3-yl)quinazolin-4-amine]",100 to 500,10 to 100,≤ 1,
"COc1cc(Nc2nc(C(=O)c3ccc(F)cc3)nc3ccccc23)n[nH]1 [Example 73, (4-fluorophenyl)(4-(5-methoxy-1H-pyrazol-3-ylamino)quinazolin-2-yl)methanone]",100 to 500,10 to 100,≤ 1,

# Next, values leading:
IC50 [1] [nM],Kd [2] [nM],Kd [3] [nM],Kd [4] [nM],SMILES
≤ 100,10 to 100,≤ 1,> 200,"OC(c1ccc(F)cc1)c1nc(Nc2cc[nH]n2)c2ccccc2n1 (racemic) [Example 6, (R,S)-(4-(1H-pyrazol-3-ylamino)quinazolin-2-yl)(4-fluorophenyl)methanol]"
≤ 100,,,50 to 200,"Cc1cc(Nc2nc(C(O)c3ccc(F)cc3)nc3ccccc23)n[nH]1 (racemic) [Example 12, (R,S)-(4-fluorophenyl)(4-(5-methyl-1H-pyrazol-3-ylamino)quinazolin-2-yl)methanol hydrochloride]"
100 to 500,10 to 100,≤ 1,> 200,"COC(c1ccc(F)cc1)c1nc(Nc2cc(C)[nH]n2)c2ccccc2n1 (racemic) [Example 13, (R,S)-2-((4-fluorophenyl)(methoxy)methyl)-N-(5-methyl-1H-pyrazol-3-yl)quinazolin-4-amine]"
100 to 500,10 to 100,1 to 10,> 200,"Cc1cc(Nc2nc(C(N)c3ccc(F)cc3)nc3ccccc23)n[nH]1 (racemic) [Example 14, (R,S)-2-(amino(4-fluorophenyl)methyl)-N-(5-methyl-1H-pyrazol-3-yl)quinazolin-4-amine]"
> 500,> 100,> 10,> 200,"N#Cc1cc(Nc2nc(C(O)c3ccc(F)cc3)nc3ccccc23)n[nH]1 (racemic) [Example 15, (R,S)-3-(2-((4-fluorophenyl)(hydroxy)methyl)quinazolin-4-ylamino)-1H-pyrazole-5-carbonitrile]"
100 to 500,> 100,> 10,> 200,"Cc1cc(Nc2nc(C(O)c3ccc(F)cc3)nc3cccc(F)c23)n[nH]1 (racemic) [Example 16, (R,S)-(5-fluoro-4-(5-methyl-1H-pyrazol-3-ylamino)quinazolin-2-yl)(4-fluorophenyl)methanol]"
≤ 100,10 to 100,≤ 1,> 200,"Cc1ccc2c(Nc3cc(C)[nH]n3)nc(C(O)c3ccc(F)cc3)nc2c1 (racemic) [Example 25, (R,S)-(4-fluorophenyl)(7-methyl-4-(5-methyl-1H-pyrazol-3-ylamino)quinazolin-2-yl)methanol]"
≤ 100,10 to 100,≤ 1,20 to 50,"Cc1cc(Nc2nc(C(O)c3ccc(F)cc3)nc3cc(O)ccc23)n[nH]1 (racemic) [Example 36, (R,S)-2-((4-fluorophenyl)(hydroxy)methyl)-4-(5-methyl-1H-pyrazol-3-ylamino)quinazolin-7-ol]"
100 to 500,10 to 100,≤ 1,,"Cc1cc(Nc2nc(C(NC3CC3)c3ccc(F)cc3)nc3ccccc23)n[nH]1 (centres unmarked) [Example 69, 2-((cyclopropylamino)(4-fluorophenyl)methyl)-N-(5-methyl-1H-pyrazol-3-yl)quinazolin-4-amine]"
> 500,10 to 100,1 to 10,,"Cc1cc(Nc2nc(C(CCN)c3ccc(F)cc3)nc3ccccc23)n[nH]1 (centres unmarked) [Example 71, 2-(3-amino-1-(4-fluorophenyl)propyl)-N-(5-methyl-1H-pyrazol-3-yl)quinazolin-4-amine]"
